Test results taken from US6521633B2, “Treating NIDDM with RXR agonists” (Ligand Pharmaceuticals Incorporated, priority 1995, dated 2003).

Key:
3T3-LI cells [1] = test: Oil red O staining of differentiating 3T3-LI adipocytes; type: cell-based, mouse; settings: for Percent of Differentiated Cells: 3T3-L1, BRL 49653 and LG 100268 at 1 μM; for Percent of Differentiated Cells / cells induced to differentiate into adipocytes: insulin at 0.01 mg/ml; for cells induced to differentiate into adipocytes: BRL 49653 and retinoid at 1 μM
From the text: They are contact inhibited and can be induced to differentiate into adipocyte cells containing large lipid droplets within the cytoplasm. Adipocyte differentiation can be observed by oil red O staining which stains the lipid droplets within the cytoplasm red. The extent of adipocyte differentiation can then be monitored by microscope observation.

C3H/10T1/2 cells = test: Oil red O staining of C3H/10T1/2 cells; type: cell-based, mouse; settings: for Experiment B (+BRL + Insulin) % differentiated cells / Experiment A (+BRL) % differentiated cells: 7 days; for effect on differentiation induced by BRL 49653 or BRL/insulin: in combination with BRL 49653
3T3-LI cells [2] = test: 96-well plate triglyceride accumulation assay in differentiating adipocytes; type: cell-based, mouse; settings: for triglyceride accumulation: retinoids and BRL 49653 at 1 μM, insulin at 0.01 mg/ml, alone or all together; for triglyceride accumulation on addition of retinoid with BRL 49653: retinoid 1 μM with BRL 49653 1 μM
From the text: For a more quantitative assay and rapid screening of compounds, a 96-well plate assay was developed to quantitate the amount of triglyceride produced by the differentiating adipocytes. […] The level of triglyceride accumulation can then be measured via an enzymatic color reaction which can be read in a plate reader. The retinoid modulation of lipid formation was quantitated by monitoring triglyceride formation.

3T3-L1 cells = test: Insulin stimulated labeled 2-deoxyglucose uptake assay; type: cell-based, mouse; settings: 3T3-L1 treated 10 days; BRL 49653 or LG 100268 (1 μM); insulin 0.01 mg/ml for 5 days; normalized to total cellular protein
Procedure: A fourth indicator for the utility of a compound in treating NIDDM or insulin-resistant diabetes is the compound's, ability to enhance insulin-stimulated glucose uptake. Labeled 2-deoxyglucose (2-DOG, a glucose analog) assay was performed with a preadipocyte cell line in the presence of insulin and a candidate compound to measure the level of 2-DOG incorporation.
A murine preadipocyte cell line, 3T3-L1, is widely used to study glucose uptake, adipogenesis, and has been used in the characterization of thiazolidinediones and other PPARγ activators.
Insulin was added to the cells at a concentration of 0.01 mg/ml for 5 days, thereafter no insulin was added. […] The level of incorporated labeled 2-DOG was normalized to the amount of total cellular protein.

db/db mice = test: In vivo experiment with db/db mice; settings: for increase of HDL-cholesterol levels in comparison to controls: BRL 49653, or combination, terminal serum, precipitation method; for lowering of the level of glucose in comparison to control: BRL 49653 1 mg/kg, LG 100268 20 mg/kg, or combination
Procedure: Animals: Strain Diabetic C57BLKS/Jm+/+db, 82 mice
Mice were identified by an ear punch code (#1-82) and separated into 8 groups (A-H). Each group consisted of 10 mice separated into 4 cages with 2-3 mice/cage. […] Control group C consisted of 12 mice. […] Food and water were provided ad libitum. Food intake/cage was measured over selected periods and expressed as g food consumed/100 g mouse/day.
(§1) On days of study, food was removed from the cages at selected intervals of time between 6:15 and 7:00 AM. Animal weights were recorded 2 h after start of fast and blood samples taken after a 3 h fast. Blood was drawn from a cut at the tip of the tail and collected into a heparinized capillary tube (approx. 75 μl volume). After centrifugation, the hematocrit was read in a microcapillary reader, recorded and the tube broken for recovery of plasma for analysis of glucose, triglyceride and insulin concentration.
Blood samples were collected on days 0−1,0, 3, 7, 10, and on the final day of study, days 13-15. […] The various solutions were gavaged daily to their respective groups based on the animals weight taken that morning or the weight of the animal taken on the preceding day of weighing. To assess alterations in plasma FFA, on day 10 an addition 75 μl blood sample was collected into an EDTA-coated capillary tube immediately after collecting the basal heparinized capillary tube sample.
On the final day of study, mice were not gavaged with test solution. The last gavage was administered on the day preceding the final day, i.e., day 12 for animals terminated on day 13, day 13 for animals terminated on day 14 and day 14 for animals terminated on day 15. Terminal blood was collected by decapitation to provide serum for assessment of HDL.

ob/ob mice = test: In vivo experiment with ob/ob mice; settings: mouse
Procedure: Each group consisting of 10 mice.
as §1
Blood samples were collected on days 0−3, 0, 3, 6, 8, 10, 14±1 and final collections were made on days 15, 16 or 17. FFA samples were collected on day 10 by drawing a second 75 μl blood sample in a non-heparinized tube coated with EDTA. This tube was collected immediately after the heparinized tube collection.
Animals in groups H were administered control gavage solution (0.6 ml/42 g) daily commencing on day 0 and ending on the day preceding the final day. 11 test solutions were administered to animals in groups designated A-G, I-L. All gavage solutions were administered after refeeding on days in which mice were fasted for blood sampling.

[3] = system: LPL (lipoprotein lipase) mRNA and PPARγ mRNA; test: Northern blot analysis of adipocyte specific genes in 3T3-LI cells; type: cell-based, mouse; settings: 3T3-LI treated for 7 days; BRL 49653 1 μM, LG 100268 1 μM, insulin 0.01 mg/ml
Procedure: A third measure of adipocyte differentiation is to examine regulation of gene expression. […] Northern blot analysis was used to dissect the molecular aspects of how retinoids effect target genes of differentiating adipocytes. PPARγ, lipoprotein lipase (LPL), and β-actin (loading control) mRNA levels were monitored after cells were treated with thiazolidinediones and retinoids.
Adipocyte specific genes were monitored via northern blot analysis.

[4] = BRL 0.1 μM + insulin 0.01 mg/ml, alone or plus ALRT 1057 1 μM or LGD 1069 1 μM
[5] = BRL 0.1 μM alone or plus ALRT 1057 1 μM, LGD 1069 1 μM or TTNPB 10 nM
[6] = BRL 10 μM + insulin 0.01 mg/ml, alone or plus ALRT 1057 1 μM, LGD 1069 1 μM or TTNPB 10 nM
[7] = BRL 10 μM alone or plus ALRT 1057 1 μM, LGD 1069 1 μM or TTNPB 10 nM
[8] = middle group r17-r20, headed BRL (0.1 μM), + insulin 0.01 mg/ml, alone or plus ALRT 1057 1 μM, LGD 1069 1 μM or TTNPB 10 nM
[9] = middle group r17-r20, headed BRL (0.1 μM), alone or plus ALRT 1057 1 μM, LGD 1069 1 μM or TTNPB 10 nM

## CC1=C(/C=C/C(C)=C\C=C\C(C)=C\C(=O)O)C(C)(C)CCC1 [ALRT 1057, 9-cis retinoic acid]
3T3-LI cells [1]; 3T3-LI
  amount of adipocyte differentiation when used in combination with BRL 49653: increased the amount of differentiation
C3H/10T1/2 cells; [4]
  Experiment B (+BRL + Insulin) % differentiated cells: 65%
C3H/10T1/2 cells; [5]
  Experiment A (+BRL) % differentiated cells: 45%
C3H/10T1/2 cells; [6]
  Experiment B (+BRL + Insulin) % differentiated cells: 99%
C3H/10T1/2 cells; [7]
  Experiment A (+BRL) % differentiated cells: 80%
C3H/10T1/2 cells
  effect on differentiation induced by BRL 49653 or BRL/insulin: large increase in the amount of differentiation
C3H/10T1/2 cells; [8]
  Experiment B (+BRL + Insulin) % differentiated cells: 90%
C3H/10T1/2 cells; [9]
  Experiment A (+BRL) % differentiated cells: 65%

## CN(CCOc1ccc(CC2SC(=O)NC2=O)cc1)c1ccccn1 (stereo not shown) [BRL 49653, 5-[[4-[2-(methyl-2-pyridinylamino)ethoxy]phenyl]methyl]-2,4-thiazolidinedione, reference compound]
3T3-LI cells [1]
  Percent of Differentiated Cells: 50%
3T3-LI cells [1]; 3T3-LI
  cells induced to differentiate into adipocytes: 50%
3T3-LI cells [2]
  triglyceride accumulation: induced some triglyceride accumulation
3T3-L1 cells
  increase in 2-DOG uptake: About 5 fold
db/db mice; LG 100268 20 mg/kg
  increase of HDL-cholesterol levels in comparison to controls: equivalent level of increase
db/db mice; daily gavage, by day 15
  lowering of the level of glucose in comparison to control: 40%

## Cc1cc2c(cc1C1(c3ccc(C(=O)O)cn3)CC1)C(C)(C)CCC2(C)C [LG 100268, 2-[1-(3,5,5,8,8-pentamethyl-5,6,7,8-tetrahydro-2-naphthyl)-cyclopropyl]-pyridine-5-carboxylic acid]
3T3-LI cells [1]
  Percent of Differentiated Cells: 50%
3T3-LI cells [1]; 3T3-LI
  cells induced to differentiate into adipocytes: 50%
  amount of adipocyte differentiation when used in combination with BRL 49653: increased dramatically
3T3-LI cells [1]; 3T3-LI, LG 100268 at 1 μM
  lipid droplets within the cytoplasm: bigger redder lipid droplets
3T3-LI cells [2]
  triglyceride accumulation on addition of retinoid with BRL 49653: increased the amount of triglyceride accumulation
  triglyceride accumulation: largest response
3T3-L1 cells
  increase in 2-DOG uptake: About 2 fold
db/db mice; LG 100268 20 mg/kg
  increase of HDL-cholesterol levels in comparison to controls: 20%
db/db mice; daily gavage, by day 15
  lowering of the level of glucose in comparison to control: 40%
db/db mice; daily gavage, LG 100268 20 mg/kg, BRL 49653 1 mg/kg, or combination, by day 15
  lowering of the level of triglycerides: 46%
ob/ob mice
  lowering of the level of glucose in comparison to control: ~50%

## C=C(c1ccc(C(=O)O)cc1)c1cc2c(cc1C)C(C)(C)CCC2(C)C [LGD 1069]
3T3-LI cells [1]; 3T3-LI
  amount of adipocyte differentiation when used in combination with BRL 49653: increased the amount of differentiation
3T3-LI cells [2]
  triglyceride accumulation on addition of retinoid with BRL 49653: increased the amount of triglyceride accumulation
C3H/10T1/2 cells; [4]
  Experiment B (+BRL + Insulin) % differentiated cells: 90%
C3H/10T1/2 cells; [5]
  Experiment A (+BRL) % differentiated cells: 45%
C3H/10T1/2 cells; [6]
  Experiment B (+BRL + Insulin) % differentiated cells: 99%
C3H/10T1/2 cells; [7]
  Experiment A (+BRL) % differentiated cells: 80%
C3H/10T1/2 cells
  effect on differentiation induced by BRL 49653 or BRL/insulin: large increase in the amount of differentiation
C3H/10T1/2 cells; [8]
  Experiment B (+BRL + Insulin) % differentiated cells: 90%
C3H/10T1/2 cells; [9]
  Experiment A (+BRL) % differentiated cells: 65%

## C/C(=C\c1ccc(C(=O)O)cc1)c1ccc2c(c1)C(C)(C)CCC2(C)C [TTNPB, reference compound]
C3H/10T1/2 cells; [5]
  Experiment A (+BRL) % differentiated cells: 0.2%
C3H/10T1/2 cells; [6]
  Experiment B (+BRL + Insulin) % differentiated cells: 50%
C3H/10T1/2 cells; [7]
  Experiment A (+BRL) % differentiated cells: 5%
C3H/10T1/2 cells
  effect on differentiation induced by BRL 49653 or BRL/insulin: inhibited the differentiation
C3H/10T1/2 cells; [8]
  Experiment B (+BRL + Insulin) % differentiated cells: 30%
C3H/10T1/2 cells; [9]
  Experiment A (+BRL) % differentiated cells: 2%

## Insulin: insulin, used at 0.01 mg/ml
3T3-LI cells [1]
  Percent of Differentiated Cells: 20%
3T3-LI cells [2]
  triglyceride accumulation: induced some triglyceride accumulation
[3]
  LPL and PPARγ mRNA levels, relative signal normalized to β-actin: three to five fold increase
